# Results from ChEMBL document CHEMBL4813909, “Heterocyclic Diamidine DNA Ligands as HOXA9 Transcription Factor Inhibitors: Design, Molecular Evaluation, and Cellular Consequences in a HOXA9-Dependant Leukemia Cell Model” (J Med Chem, 2019).
# The source made the active and inactive calls. No cut-off for these calls is given here.
# Assays:
# HOXA9 DNA binding site [1] = test: Inhibition of HOXA9 (unknown origin) expressed in reticulocyte lysate system binding to 32P-radiolabeled DNA Hoxa9-binding site (strand a-CTGCGATGATTTACGACCGC /strand b-GCGGTCGTAAATCATCGCAG) (unknown origin) assessed as HOXA9/DNA inhibition at 2.5 to 20 uM incubated for 20 mins by electrophoretic mobility shift assay relative to control; type: subcellular; conditions: dose 2.5-20 µM
# [2] = Induction of cell death in mouse MigA9 cells harboring mouse Hoxa9 gene assessed as propidium iodide-positive cells at 5 uM incubated for 24 hrs by propidium iodide staining based flow cytometry (reference value: 9.06 +/- 0.53%); type: functional
# [3] = Induction of cell cycle arrest in mouse MigA9 cells expressing mouse Hoxa9 assessed as accumulation at S phase at 5 uM incubated for 48 hrs by EdU/propidium iodide staining based flow cytometry (reference value: 46.68 +/- 0.21%); type: functional
# HOXA9 DNA binding site [4] = conditions: dose 1.0 µM
# [5] = Induction of cell cycle arrest in mouse MigA9 cells expressing mouse Hoxa9 assessed as accumulation at G0/G1 phase at 5 uM incubated for 48 hrs by EdU/propidium iodide staining based flow cytometry (reference value: 48.77 +/- 0.19%); type: functional
# [6] = Induction of cell cycle arrest in mouse MigA9 cells expressing mouse Hoxa9 assessed as accumulation at G2/M phase at 5 uM incubated for 48 hrs by EdU/propidium iodide staining based flow cytometry (reference value: 4.55 +/- 0.16%); type: functional
# [7] = Drug localization in nucleus of mouse MigA9 cells at 20 uM incubated for 2 hrs by TO-PRO-3/propidium iodide staining based by fluorescence microscopy; type: ADME, subcellular; conditions: miga9, 2 h
# [8] = Induction of cell death in mouse MigA9 cells harboring mouse Hoxa9 gene assessed as propidium iodide-positive cells at 5 uM incubated for 48 hrs by propidium iodide staining based flow cytometry (reference value: 8.75 +/- 0.2%); type: functional
# [9] = Induction of cell cycle arrest in mouse MigA9 cells harboring mouse Hoxa9 gene assessed as accumulation at sub-G1 phase at 5 uM incubated for 48 hrs by propidium iodide staining based flow cytometry (reference value: 0.76 +/- 0.1%); type: functional
# [10] = Induction of cell death in mouse MigA9 cells harboring mouse Hoxa9 gene assessed as propidium iodide-positive cells at 20 uM incubated for 24 hrs by propidium iodide staining based flow cytometry (reference value: 9.06 +/- 0.53%); type: functional
# [11] = Induction of cell cycle arrest in mouse MigA9 cells harboring mouse Hoxa9 gene assessed as accumulation at sub-G1 phase at 20 uM incubated for 48 hrs by propidium iodide staining based flow cytometry (reference value: 0.76 +/- 0.1%); type: functional
# [12] = Induction of cell death in mouse MigA9 cells harboring mouse Hoxa9 gene assessed as propidium iodide-positive cells at 15 uM incubated for 24 hrs by propidium iodide staining based flow cytometry (reference value: 9.06 +/- 0.53%); type: functional
# HOXA9 DNA binding site [13] = conditions: dose 0.5 µM
# [14] = Drug localization in nucleus of human HT-29 cells at 5 uM incubated for 16 hrs by DiOC6/propidium iodide staining based by fluorescence microscopy; type: ADME, subcellular; conditions: ht-29, 16 h
# [15] = Cytotoxicity against mouse MigA9 cells harboring mouse Hoxa9 gene incubated for 72 hrs by MTS assay; type: functional, cell-based; conditions: MigA9, 72 h
# [16] = Induction of cell death in mouse MigA9 cells harboring mouse Hoxa9 gene assessed as propidium iodide-positive cells at 1 uM incubated for 24 hrs by propidium iodide staining based flow cytometry relative to control; type: functional
# [17] = Induction of cell cycle arrest in mouse MigA9 cells expressing mouse Hoxa9 assessed as accumulation at S phase at 0.5 uM incubated for 48 hrs by EdU/propidium iodide staining based flow cytometry (reference value: 46.68 +/- 0.21%); type: functional
# [18] = Induction of cell death in mouse MigA9 cells harboring mouse Hoxa9 gene assessed as propidium iodide-positive cells at 0.5 uM incubated for 48 hrs by propidium iodide staining based flow cytometry (reference value: 8.75 +/- 0.2%); type: functional
# [19] = Induction of cell cycle arrest in mouse MigA9 cells expressing mouse Hoxa9 assessed as accumulation at G0/G1 phase at 0.5 uM incubated for 48 hrs by EdU/propidium iodide staining based flow cytometry (reference value: 48.77 +/- 0.19%); type: functional
# [20] = Induction of cell death in mouse MigA9 cells harboring mouse Hoxa9 gene assessed as propidium iodide-positive cells at 1 uM incubated for 48 hrs by propidium iodide staining based flow cytometry (reference value: 8.75 +/- 0.2%); type: functional
# HOXA9 DNA binding site [21] = conditions: dose 0.5-1 µM
# [22] = Induction of cell death in mouse MigA9 cells harboring mouse Hoxa9 gene assessed as propidium iodide-positive cells at 0.5 uM incubated for 24 hrs by propidium iodide staining based flow cytometry (reference value: 9.06 +/- 0.53%); type: functional
# [23] = Induction of cell cycle arrest in mouse MigA9 cells harboring mouse Hoxa9 gene assessed as accumulation at sub-G1 phase at 0.5 uM incubated for 48 hrs by propidium iodide staining based flow cytometry (reference value: 0.76 +/- 0.1%); type: functional
# [24] = Induction of cell cycle arrest in mouse MigA9 cells expressing mouse Hoxa9 assessed as accumulation at G2/M phase at 0.5 uM incubated for 48 hrs by EdU/propidium iodide staining based flow cytometry (reference value: 4.55 +/- 0.16%); type: functional
smiles,measurement,setting,value
N=C(N)c1ccc(-c2cnc(-c3ccc(C(=N)N)cc3)o2)cc1,inhibition,HOXA9 DNA binding site [1],inactive
N=C(N)c1ccc(-c2ccc(-c3cc4ccc(C(=N)N)cc4[nH]3)s2)cc1,Activity,[2],7.42%
same,Activity,[3],9.15%
same,ΔTm,HOXA9 DNA binding site [4],> 10 °C
same,Activity,[5],77.92%
same,Activity,[6],12.93%
same,Drug transport,[7],Active
same,Activity,[8],77.87%
same,Activity,[9],33.64%
CC(C)n1c(-c2ccc(-c3ccc(C(=N)N)cc3)s2)nc2cc(-c3ccc(C(=N)N)cc3)ccc21,Drug transport,[7],Active
N=C(N)c1ccc(-c2cccc(-c3nc4cc(C(=N)N)ccc4[nH]3)c2)cc1,Drug transport,[7],Not Active
N=C(N)c1ccc(-c2cnc(-c3ccc(C(=N)N)cc3)s2)cc1,Activity,"[10]; dose 20 µM, time 24 hrs",5.91%
same,inhibition,HOXA9 DNA binding site [1],Active
same,Activity,[11],1.71%
same,Drug transport,[7],Active
same,Activity,"[12]; dose 15 µM, time 24 hrs",5.69%
Cn1c(-c2ccc(-c3ccc(-c4nc5cc(C(=N)N)ccc5n4C)s3)cc2)nc2cc(C(=N)N)ccc21,inhibition,HOXA9 DNA binding site [1],inactive
same,Drug transport,[7],Active
N=C(N)c1ccc(-c2ccc(-c3cc4ccc(C(=N)N)cc4[nH]3)o2)cc1,inhibition,HOXA9 DNA binding site [1],Active
same,ΔTm,HOXA9 DNA binding site [4],> 10 °C
same,Drug transport,[7],Active
same,ΔTm,HOXA9 DNA binding site [13],7 °C
same,Activity,"[12]; dose 15 µM, time 24 hrs",11.76%
Cn1c(-c2ccc(-c3ccc(C(=N)N)cc3)o2)nc2cc(C(=N)N)ccc21,inhibition,HOXA9 DNA binding site [1],inactive
same,Drug transport,[7],Active
N=C(N)c1ccc2nc(-c3ccc(-c4ccc(C(=N)N)nc4)o3)[nH]c2c1,Drug transport,[14],Active
same,inhibition,HOXA9 DNA binding site [1],inactive
COc1cc(C(=N)N)ccc1-c1ccc(-c2cc3ccc(C(=N)N)cc3[nH]2)o1,Drug transport,[7],Active
N=C(N)c1ccc(-n2ccc(-c3nc4ccc(C(=N)N)cc4[nH]3)n2)cc1,Activity,"[10]; miga9, at 20 µM",10.43%
same,Activity,[11],0.67%
same,IC50,[15],> 50 µM
same,Activity,"[12]; miga9, at 15 µM",8.64%
N=C(N)c1ccc(-c2ccc(-c3cc4cc(C(=N)N)ccc4[nH]3)o2)nc1,Drug transport,[7],Active
N=C(N)c1ccc(-c2ccc(-c3nc4ccc(C(=N)N)cc4[nH]3)o2)nc1,Drug transport,[14],Active
same,Drug transport,[7],Active
N=C(N)c1ccc(-c2ccc(-c3nc4cc(C(=N)N)ccc4[nH]3)o2)cc1,Drug transport,[14],Active
same,inhibition,HOXA9 DNA binding site [1],inactive
N=C(N)c1ccc(-c2ccc(-c3cc4ccc(C(=N)N)cc4[nH]3)s2)nc1,Activity,[2],6.21%
same,Activity,[3],22.55%
same,ΔTm,HOXA9 DNA binding site [4],> 10 °C
same,Activity,[5],67.95%
same,Activity,[6],9.5%
same,Activity,[8],39.4%
same,ΔTm,HOXA9 DNA binding site [13],7 °C
same,Activity,[9],4.48%
Cc1cc(C(=N)N)ccc1-c1ccc(-c2nc3ccc(C(=N)N)cc3[nH]2)o1,Drug transport,[14],Active
N=C(Nc1ccc(-c2ccc(-c3ccc(NC(=N)c4ccccc4)cc3)[nH]2)cc1)c1ccccc1,Activity,[16],68.8%
same,Activity,[17],38.84%
same,Activity,[18],18.33%
same,Activity,[19],53.83%
same,Activity,[20],99.33%
same,ΔTm,HOXA9 DNA binding site [21],8 °C
same,Drug transport,[7],Active
same,Activity,[22],12.9%
same,Activity,[23],2.47%
same,Activity,[24],7.32%
Cn1c(-c2ccc(-c3ccc(C(=N)N)cc3)s2)nc2cc(C(=N)N)ccc21,inhibition,HOXA9 DNA binding site [1],inactive
same,Drug transport,[7],Active
N=C(N)c1ccc(-c2ccc(-c3nc4ccc(C(=N)N)cc4[nH]3)o2)c(O)c1,Drug transport,[14],Active
N=C(N)c1ccc(-c2ccc(-c3ccc(C(=N)N)cc3)o2)cc1 [FURAMIDINE],Drug transport,[7],Active
N=C(N)c1ccc(-c2ccc(-c3ccc4ccc(C(=N)N)cc4c3)cc2)cc1,ΔTm,HOXA9 DNA binding site [21],8 °C
